US12642270B2, “Substituted thiophene carboxamides, thiophene carboxylic acids and derivatives thereof” (Bayer Aktiengesellschaft, priority 2019, dated 2026)

Assay: Log P by HPLC on reversed phase columns (EEC directive 79/831 Annex V.A8)
Type: physicochemical
Conditions: for chromatographic logP: reversed phase HPLC columns, value in preparation example, method not marked; for LogP: method [a]: LC-UV, acidic range, 0.1% formic acid in water and acetonitrile
Method in brief: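 Values come from retention times calibrated against alkan-2-ones (3–16 carbons) by linear interpolation, using reversed-phase LC-UV per EEC directive 79/831 Annex V.A8. Acetonitrile gradient 10–95% with 0.1% formic acid [a], 0.001 M ammonium acetate [b] or 0.1% phosphoric acid [c]; several values within one method separated by "+".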

Row | Structure (SMILES) | LogP | further results
1 | O=C(NC1(C(=O)O)CCC1)c1sc(Br)c(Br)c1F [I.0172, 1-{[(4,5-dibromo-3-fluoro-2-thienyl)carbonyl]amino}cyclobutanecarboxylic acid] | – | chromatographic logP: 2.57
2 | O=C(NC1CCNC1=O)c1cc(Cl)c(Br)s1 (stereo not drawn) [I.0218] | 1.71^[a] | –
3 | O=C1CC(NC(=O)c2cc(Cl)c(Br)s2)CCN1 (stereo not drawn) [I.0219] | 1.77^[a] | –
4 | O=C(NC1CCOC1=O)c1cc(Cl)c(Br)s1 (stereo not drawn) [I.0220] | 2.09^[a] | –
5 | O=C1CC(NC(=O)c2cc(Cl)c(Br)s2)CN1 (stereo not drawn) [I.0221] | 1.71^[a] | –
6 | O=C(NC1CCNC1=O)c1cc(Br)c(Cl)s1 (stereo not drawn) [I.0222] | 1.73^[a] | –
7 | O=C1CC(NC(=O)c2cc(Br)c(Cl)s2)CCN1 (stereo not drawn) [I.0223] | 1.80^[a] | –
8 | O=C(NC1CCOC1=O)c1cc(Br)c(Cl)s1 (stereo not drawn) [I.0224] | 2.14^[a] | –
9 | O=C1CC(NC(=O)c2cc(Br)c(Cl)s2)CN1 (stereo not drawn) [I.0225] | 1.73^[a] | –
10 | O=C(O)CNC(=O)c1sc(Br)c(Br)c1F [I.0227, N-[(4,5-dibromo-3-fluoro-2-thienyl)carbonyl]glycine] | – | chromatographic logP: 1.97
11 | CCC(C)C(NC(=O)c1sc(Br)c(Br)c1F)C(=O)O (stereo not drawn) [I.0235] | 3.40^[a] | –
12 | CCOC(=O)[C@H](CC(C)C)NC(=O)c1sc(Cl)c(Cl)c1C#N [I.0279, ethyl N-[(4,5-dichloro-3-cyano-2-thienyl)carbonyl]leucinate] | – | chromatographic logP: 4.05
13 | CC[C@H](C)[C@H](NC(=O)c1sc(Br)c(Cl)c1C)C(=O)OC [I.0322] | 4.25^[a] | –
14 | COC(=O)[C@H](Cc1ccccc1)NC(=O)[C@H](CC(=O)O)NC(=O)c1sc(Br)c(Br)c1F [I.0338] | 2.98^[a] | –
15 | COC(=O)C(Cc1ccccc1)NC(=O)C(CC(=O)O)NC(=O)c1sc(Br)c(Cl)c1C (stereo not drawn) [I.0339] | 3.09^[a] | –
16 | COC(=O)[C@H](Cc1ccccc1)NC(=O)[C@H](CC(=O)O)NC(=O)c1sc(Cl)c(Br)c1C [I.0340] | 3.13^[a] | –
17 | CCOC(=O)CNC(=O)c1sc(Br)c(Br)c1F [I.0449, ethyl N-[(4,5-dibromo-3-fluoro-2-thienyl)carbonyl]glycinate] | – | chromatographic logP: 2.97
18 | COC(=O)C(Cc1ccccc1)NC(=O)C(CC(=O)O)NC(=O)c1sc(Cl)c(Cl)c1Br (stereo not drawn) [I.0487] | 3.23^[a] | –
19 | COC(=O)[C@H](Cc1ccccc1)NC(=O)[C@H](CC(=O)O)NC(=O)c1sc(Br)c(Br)c1Cl [I.0488] | 3.20^[a] | –
20 | COC(=O)C(Cc1ccccc1)NC(=O)C(CC(=O)O)NC(=O)c1sc(C#N)c(Br)c1C (stereo not drawn) [I.0501] | 2.70^[a] | –
21 | O=C(N[C@H]1CCSC1=O)c1sc(Cl)c(Br)c1Cl [I.0525] | 3.28^[a] | –
22 | CCOC(=O)C(C)(C)NC(=O)C(C)(C)NC(=O)c1sc(Cl)c(Br)c1Br [I.0699] | 3.94^[a] | –
23 | O=C(NC1CCOC1=O)c1sc(Cl)c(Cl)c1C(F)F (stereo not drawn) [I.0747] | 2.40^[a] | –
24 | Cc1c(C(=O)N[C@H]2CCOC2=O)sc(C#N)c1Br [I.0761] | 1.94^[a] | –

Row | Structure (SMILES) | LogP | further results
25 | Cc1c(C(=O)N[C@H]2CCOC2=O)sc(Cl)c1Br [I.0762] | 2.45^[a] | –
26 | Cc1c(C(=O)N[C@H]2CCOC2=O)sc(Br)c1Cl [I.0763] | 2.42^[a] | –
27 | CCOC(=O)CNC(=O)c1sc(C)c(Cl)c1F [I.0793, ethyl N-[(4-chloro-3-fluoro-5-methyl-2-thienyl)carbonyl]glycinate] | – | chromatographic logP: 2.54
28 | O=C(N[C@H]1CNC1=O)c1sc(Cl)c(Cl)c1Br [I.0808] | 2.03^[a] | –
29 | N#Cc1c(C(=O)NC2CCOC2=O)sc(Cl)c1Cl (stereo not drawn) [I.0818] | 2.02^[a] | –
30 | N#Cc1sc(C(=O)NC2CCOC2=O)c(Cl)c1Cl (stereo not drawn) [I.0819] | 2.05^[a] | –
31 | Cc1c(C(=O)NC2CCOC2=O)sc(Cl)c1Br (stereo not drawn) [I.0820] | 2.48^[a] | –
32 | Cc1c(C(=O)NC2CCSC2=O)sc(Cl)c1Br (stereo not drawn) [I.0821] | – | LogP (listed as 1.0821): 3.03^[a]
33 | Cc1c(C(=O)NC2CCSC2=O)sc(Br)c1Cl (stereo not drawn) [I.0822] | 3.46^[a] | –
34 | Cc1c(C(=O)NC2CCOC2=O)sc(Br)c1Cl (stereo not drawn) [I.0825] | 2.45^[a] | –
35 | Cc1c(C(=O)NC2CCSC2=O)sc(C#N)c1Br (stereo not drawn) [I.0829] | 2.45^[a] | –
36 | O=C(NC1CCOC1=O)c1sc(Cl)c(Cl)c1Br (stereo not drawn) [I.0839] | 2.63^[a] | –
37 | Cc1c(C(=O)N[C@H]2CCSC2=O)sc(C#N)c1Br [I.0866] | 2.39^[a] | –
38 | O=C(N[C@H]1CCSC1=O)c1sc(Br)c(Br)c1Cl [I.0867] | 3.24^[a] | –
39 | N#CC1(NC(=O)c2sc(Br)c(Br)c2Cl)CCC(C2CCCCC2)CC1 (stereo not drawn) [I.0869] | 6.46^[a] | –
40 | N#CC1(NC(=O)c2sc(Br)c(Br)c2Cl)CCC(c2ccccc2)CC1 (stereo not drawn) [I.0870] | 4.97^[a] | –
41 | NC(=O)CNC(=O)c1sc(Br)c(Br)c1F [I.0894, N-(2-amino-2-oxoethyl)-4,5-dibromo-3-fluorothiophene-2-carboxamide] | – | chromatographic logP: 1.69
42 | NC(=S)CNC(=O)c1sc(Br)c(Br)c1F [I.0896, N-(2-amino-2-sulfanylideneethyl)-4,5-dibromo-3-fluorothiophene-2-carboxamide] | – | chromatographic logP: 2.25
43 | O=C(N[C@H]1CCOC1=O)c1sc(Cl)c(Cl)c1Br [I.0931] | 2.59^[a] | –
44 | O=C(N[C@H]1CCOC1=O)c1sc(Br)c(Br)c1Cl [I.0932] | 2.62^[a] | –
45 | O=C(N[C@H]1CCCNC1=O)c1sc(Cl)c(Br)c1Cl [I.0939] | 2.29^[a] | –
46 | O=C(N[C@H]1CCCNC1=O)c1sc(Cl)c(Cl)c1Br [I.0944] | 2.30^[a] | –
47 | O=C(NC1CCCCNC1=O)c1sc(Cl)c(Cl)c1Br (stereo not drawn) [I.0945] | 2.99^[a] | –
48 | O=C(NC1CCOC1=O)c1sc(Cl)c(Br)c1Cl (stereo not drawn) [I.0949] | 2.56^[a] | –
